# Patent publication US20230220480A1, “IRON-SCORE AND IN VITRO METHOD FOR IDENTIFYING HIGH RISK DLBCL SUBJECTS AND THERAPEUTIC USES AND METHODS” (CENTRE NATIONAL DE LA RECHERCHE SCIENTIFIQUE (CNRS), priority 2019, published 2023)
# Where two headings read alike, the source gives them in different places.
# Legend:
# DLBCL cells [1] = test: DNA double strand breaks, Phospho-H2A.X (Ser139) foci and western blot; type: cell-based, human; conditions: 24 hours
# Procedure: DSB induction was monitored by Phospho-H2A·X (Ser139) staining and nuclei were stained with DAPI. Foci were visualized by fluorescence microscopy. Original magnification X 63. Scale bar: 10 μm.
# Cells were treated with iron chelators (80 μM Deferasirox), and Ironomycin (20 nM and 100 nM) during 24H. Protein levels of Phospho-H2A·X (S139) were analyzed by western blot (D)
# (§1) At least 300 cells were counted for each group. Statistical difference was tested using a Fisher's exact test. * P<0.05, ** P<0.01, *** P<0.001, **** P<0.0001. NS: non-significant.
# CD34+ cells = test: Hematopoietic progenitor colony forming units (CFU) assay; conditions: 14 days
# Procedure: Hematopoietic progenitor colony-forming units assay were performed with CD34+ cells from apheresis of 5 donors. […] CFU-C, CFU-E and CFU-GM were counted after 14 days culture (C).
# Mobilized peripheral blood of donor were collected using an apheresis machine. Cells were CD34+ enriched by immuno-magnetic cell separation and fluorescence activated cell sorting (FACS).
# About 250 viable CD34+ cells/mL were cultured in Methocult GF H84434 Medium (Stem Cell, #84434). Using a 3 mL syringe attached to a 16 gauge blunt end needle, 1 mL of the mixture was dispensed into 2 35 mm dishes.
# Dishes were incubated at 37° C., in 5% C02, with >95% humidity for 14 days.
# SUDHL-5 = test: Cell viability assay (CellTiter-Glo, ATP quantification); type: cell-based, human; conditions: SUDHL5, 96H; read-out: IC50
# Procedure: (§2) FIG. 3: Iron chelators and Ironomycin inhibit DLBCL cell growth DLBCL cells were incubated with different concentrations of iron chelators or vehicle for 96H. Inhibitory concentration 50% (IC50) was calculated with concentration-response curve after treatment with Deferoxamin (A), Deferasirox, (B) and Ironomycin (C). Cell viability was examined using quantification of ATP assay. Data are expressed as mean percentage+/−SEM of at least three independent experiments performed in sixplicate.
# (§3) The 16 DLBCL cell lines (U2932, OCI-LY-3, NU-DHL-1, OCI-LY-19, DB, SUDHL4, OCILY1, SUDHL5, DOHH2, SUDHL10, HT, RI-1, SU-DHL-6, NUDUL-1, WSU-DLCL-2 and OCI-LY-7) were purchased from the DSMZ (Leibniz-Institut DSMZ—Deutsche Sammlung von Mikroorganismen und Zellkulturen GmbH, Germany). They were maintained in RPMI-1640 (Gibco, Invitrogen), supplemented with 10% fetal bovine serum (PAA laboratory GmbH) for U2932, SUDHL-4, HT, DOHH2, SUDHL-10, RI-1, WSU-DLCL-2 cell lines, 20% FBS OCI-LY3, DB, SUDHL-5, NUDHL-1, SU-DHL-6, NUDUL-1 cell lines. OCI-LY1 and OCI-LY7 were cultured in IMDM (Gibco, Invitrogen), supplemented with 20% fetal bovine serum and OCI-LY19 was cultured in MEM alpha modified (Gibco, Invitrogen), supplemented with 20% fetal bovine serum. Cultures were maintained at 37° C. in a humidified atmosphere with 5% CO2.
# (§4) DLBCL-derived cell lines were cultured for 4 days in 96-well flat-bottom microtiter plates in RPMI 1640 medium, 10% or 20% FCS (control medium) in the presence of various compounds. The number of viable cells in culture was determined using the CellTiter-Glo Luminescent Cell Viability Assay from Promega, Madison, Wis., USA using a Centro LB 960 luminometer (Berthold Technologies, Bad Wildbad, Germany).
# (§5) This test is based on quantitation of the intracellular ATP present, which signals the presence of metabolically active cells. Data are expressed as the mean percentage of six replicates, normalized to the untreated control.
# U2932 = test: as above; type: cell-based, human; conditions: U2932, 96H; read-out: IC50
# Procedure: as §2, §3, §4, §5
# DB = test: as above; type: cell-based, human; conditions: 96H, read-out: IC50
# Procedure: as §2, §3, §4, §5
# OCI-LY3 = test: as above; type: cell-based, human; conditions: OCI-LY3, 96H; read-out: IC50
# Procedure: as §2, §3, §4, §5
# 16 DLBCL cell lines = test: Cell viability assay, panel of 16 DLBCL cell lines; type: cell-based, human; conditions: 96H, read-out: IC50 range over all DLBCL cell lines
# Description: as §3, with “Cultures were maintained at 37° C. in a humidified atmosphere with 5% CO2.” left out
# as §4
# This test is based on quantitation of the intracellular ATP present, which signals the presence of metabolically active cells. Data are expressed as the mean percentage of six replicates, normalized to the untreated control. […]
# DLBCL cells [2] = test: Autophagy, LC3B II puncta; type: cell-based, human; conditions: 100 nM, 24H, P<0.0001
# primary DLBCL cells = conditions: for reduction of the median number of viable primary DLBCL cells: N=5 patients, with CD40L
# Procedure: Primary samples of DLBCL patients were cultured with their microenvironment recombinant CD40L in presence or absence of 50 nM and 100 nM of Ironomycin. Percentage of malignant DLBCL cells for each individual patients were analyzed by flow cytometry and expressed in % of control (A). […] The effect of Ironomycin alone or in combination with Doxorubicin on normal CD3+ cells was assessed by flow cytometry (C).
# Cells are obtained from lymph nodes or blood of 5 patients with DLBCL. Cells from blood are obtained by density gradient separation and cells from lymph node are obtained with a tissues dissociator and qualified by Flow cytometry.
# Cells are cultured in Gibco® Iscove's MDM (Glutamax) medium (#31980-022) with 20% FBS with antibiotitcs-antimicotics (Gibco Penicillin-streptomycin-amphotericin B 100X, #15240-096) at a density of 0.5×10^6 Cell/mL with 50 ng/mL of histidine-tagged CD40L (R&D System, 2706-CL) and 5 μg/mL of anti-histidine antibody R&D System, MAB050), Gibco® pyruvate 100X, #1136-039. Cells are seeded 24H after thawing and treated with various compounds during 72H.
# Total cells were counted with trypan bleu and stained with the panel CD45 V500 (BD, #560777), Kappa FITC (Dako, F0434), CD19 PE-Cy7 (BD, #341113), Lambda PE (Dako, R0437), CD3 APC-H7 (BD, #641415), CD10 APC (BD, #332777) and CD20 V450 (BD, #655872) and analyzed by flow cytometry (Canto II cytometer, BD Pharmigen).Tumorous population cells were gated on CD19+, CD45+, CD20+, Kappa or lambda and non-tumorous population cells were gated on CD45+,CD19−, and T cells on CD45+, CD3+, CD19−.
# [3] = system: DB and OCI-LY3 DLBCL derived cell-line; test: phospho-RPA2 T21 foci immunofluorescence; type: cell-based, human; conditions: 50 nM, 24H
# Procedure: DB and OCI-LY3 DLBCL derived cell-line was treated with 50 nM Ironomycin during 24H. Immunofluoresence staining for foci of phospho-RPA2 T21, S phase (EdU integration) and DAPI was performed in DLBCL cells. (Magnification x63). Scale bar: 10 μm.
# as §1
# DB and OCI-LY3 cells = test: DNA fiber assay (replication fork progression); type: cell-based, human
# Procedure: DB and OCI-LY3 cells were labeled with IdU, treated with vehicle, gemcitabine (10 μM) or Ironomycin (100 μM) and labeled with CIdU (30 minutes each), and then harvested for DNA fiber assay (A and B).
# DB cells were pretreated or not by deoxynucleotides for 30 minutes, labeled with IdU, treated with vehicle, gemcitabine (10 μM) or Ironomycin (100 μM) and labeled with CIdU (30 minutes each), and then harvested for DNA fiber assay (C and D).
# Boxplot represent median±interquartile ranges and dots represent outliers of track length (expressed in μm). Results represent at least 200 track measurements. * P<0.05, **** P<0.0001, NS: non-significant, Mann-Whitney test.
# Eukaryotic cells contain numerous iron-requiring proteins such as iron-sulfur (Fe—S) cluster proteins, hemoproteins and ribonucleotide reductases that play key roles in DNA replication and require iron as a cofactor (Zhang, 2014). The inventors next monitored the effect of ironomycin on fork progression in DLBCL cells using DNA fiber analysis. To this end, DLBCL cell lines were pulse labeled with 10 μM IdU and 100 μM CIdU and the length of CIdU tracks was measured to estimate the distance covered by individual forks during the pulse. […] Gemcitabine was used as a positive control. […]
smiles,measurement,setting,value
C#CCN[C@@H]1C=C[C@]2(O[C@H]([C@@H](CC)C(=O)[C@@H](C)[C@@H](O)[C@H](C)[C@@H]3O[C@@H]([C@@H](CC)C(=O)O)CC[C@@H]3C)[C@@H](C)C[C@H]2C)O[C@@]12CC[C@@](C)([C@H]1CC[C@](O)(CC)[C@H](C)O1)O2 [Ironomycin],"DNA double strand breaks (γH2AX foci, H2AX phosphorylation)",DLBCL cells [1],induced DNA double strand breaks
same,"toxicity on CFU-C, CFU-E and CFU-GM formation","CD34+ cells; 10 nM, N=5",no significant toxicity
same,hematopoietic toxicity compared to conventional chemotherapy,CD34+ cells; 50 and 100 nM,significant lower hematopoietic toxicity
same,IC50,SUDHL-5,28.9 nM
same,IC50,U2932,30.4 nM
same,IC50,DB,17.2 nM
same,IC50,OCI-LY3,16.8 nM
same,IC50,16 DLBCL cell lines,7.2 to 91.5 nM
same,LC3B II puncta (autophagy),DLBCL cells [2],clear increase in LC3B II puncta
same,reduction of the median number of viable primary DLBCL cells,primary DLBCL cells; 50 nM,63.1%
same,reduction of the median number of viable primary DLBCL cells,primary DLBCL cells; 100 nM,67.1%
same,toxicity in DLBCL cells compared to normal cells from the microenvironment,"primary DLBCL cells; primary samples, 50 nM and 100 nM",higher toxicity
same,phosphorylation of RPA2 on threonine 21 (replication stress),[3],increased phosphorylation of replication protein A sub-unit 2 (RPA2) on threonine 21
same,effect of deoxynucleotide supplementation on replication fork delay,DB and OCI-LY3 cells; DB cells pretreated by deoxynucleotides for 30 minutes,partially reversed
same,length of CIdU tracks compared to control cells,DB and OCI-LY3 cells; P<0.0001,significantly shorter
